# Read-outs that look alike come from different tables or passages of the source.
# Assays:
# M1 muscarinic receptor = biological target: T1, M1 muscarinic receptor (Homo sapiens, UniProt P11229); assay: Functional mobilization of intracellular calcium (FLIPR) in M1-CHO cells; type: cell-based
# T1 construct: expressed in transfected cells; host or cells: CHO (M1-CHO)
# T1 sequence (P11229 1-460): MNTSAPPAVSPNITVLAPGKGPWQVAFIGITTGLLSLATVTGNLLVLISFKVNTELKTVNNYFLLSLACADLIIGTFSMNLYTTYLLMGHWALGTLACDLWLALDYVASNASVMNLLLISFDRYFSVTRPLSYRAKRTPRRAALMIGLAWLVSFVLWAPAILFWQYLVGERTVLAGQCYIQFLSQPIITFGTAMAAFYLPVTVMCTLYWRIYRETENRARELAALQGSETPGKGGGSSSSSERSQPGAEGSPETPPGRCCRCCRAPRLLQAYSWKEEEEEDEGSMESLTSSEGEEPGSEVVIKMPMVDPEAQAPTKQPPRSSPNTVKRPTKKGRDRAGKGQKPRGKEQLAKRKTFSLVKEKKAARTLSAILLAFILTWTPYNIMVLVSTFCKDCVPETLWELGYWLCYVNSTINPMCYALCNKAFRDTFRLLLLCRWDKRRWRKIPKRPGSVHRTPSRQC
# Outline: (§1)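 Two modes: direct compound addition for agonism, or 15 min compound pre-incubation (or co-application) before carbachol at EC80 for inhibition. Calcium signal from Fluo-3 AM or Calcium 3 dye in CHO cells, 1 mM probenecid, pH 7.4, read 60 sec at 488/540 nm; DMSO 0.5% final.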
# M4 muscarinic receptor = biological target: T2, M4 muscarinic receptor (Homo sapiens, UniProt P08173); assay: Functional mobilization of intracellular calcium (FLIPR) in M4-CHO cells; type: cell-based
# T2 construct: expressed in transfected cells; host or cells: CHO (M4-CHO)
# T2 sequence (P08173 1-479): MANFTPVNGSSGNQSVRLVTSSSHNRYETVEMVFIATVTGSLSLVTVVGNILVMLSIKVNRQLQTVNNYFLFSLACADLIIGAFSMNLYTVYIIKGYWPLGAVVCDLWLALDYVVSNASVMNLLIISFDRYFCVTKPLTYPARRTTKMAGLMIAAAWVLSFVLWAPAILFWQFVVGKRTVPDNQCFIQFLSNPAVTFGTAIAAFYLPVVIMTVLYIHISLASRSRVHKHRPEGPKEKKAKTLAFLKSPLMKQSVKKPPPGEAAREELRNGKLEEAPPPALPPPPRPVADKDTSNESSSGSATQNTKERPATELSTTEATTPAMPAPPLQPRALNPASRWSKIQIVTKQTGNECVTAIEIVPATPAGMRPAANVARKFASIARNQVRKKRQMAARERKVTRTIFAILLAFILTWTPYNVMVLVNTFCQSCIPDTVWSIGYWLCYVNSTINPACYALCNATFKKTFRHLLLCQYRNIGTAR
# Outline: as §1
# [1] = M1 receptor, calcium mobilization
# [2] = M1 receptor, calcium mobilization, read-out: M1 Efficacy
# [3] = M4 receptor, calcium mobilization
# [4] = M4 receptor, calcium mobilization, read-out: M4 Efficacy
# [5] = Table 4, 100% efficacy is the maximum response obtained with the Carbachol control
# [6] = Table 4, M1 receptor, calcium mobilization (FLIPR)
# [7] = Table 4, M4 receptor, calcium mobilization (FLIPR)
# [8] = Table 4, modulating M1 receptor
# [9] = Table 4, modulating M4 receptor
SMILES,M1 Activity (M1 muscarinic receptor; [1]),Emax (M1 muscarinic receptor; [2]) [%],M4 Activity (M4 muscarinic receptor; [3]),Emax (M4 muscarinic receptor; [4]) [%],Emax (M1 muscarinic receptor; [5]) [%],Emax (M4 muscarinic receptor; [5]) [%],M1 Activity (M1 muscarinic receptor; [8]),M4 Activity (M4 muscarinic receptor; [9]),also measured
CCOC(=O)N1CCC(N2CCC3(CC2)CN(C(=O)N2CCOCC2)c2ccc(F)cc23)CC1 [compound 290],xxx (activity was measured to be less than 0.1 μM),< 65,x (activity was measured to be greater than 1.0 μM),< 65,,,,,
CCOC(=O)N1CCC(N2CCC3(CC2)CN(C(C)=O)c2ccc(C(C)C)cc23)CC1 [compound 872],,,,,25 to 100,25 to 100,,,M1 Activity (M1 muscarinic receptor; [6]): xxx (activity was measured to be less than 2.0 μM); M4 Activity (M4 muscarinic receptor; [7]): xxx (activity was measured to be less than 2.0 μM)
CCOC(=O)N1CCC(N2CCC3(CC2)CN(C(C)=O)c2c(-c4ccncc4)cccc23)CC1 [compound 677],,,,,25 to 100,< 25,x (activity was measured to be greater than 5.0 μM),x (activity was measured to be greater than 5.0 μM),
CN(C)C(=O)N1CC2(CCN(C3CCN(C(=O)OCCF)CC3)CC2)c2cc(F)ccc21 [compound 48],xxx (activity was measured to be less than 0.1 μM),> 85,xx (activity was measured to be between 0.1 μM and 1.0 μM),65 to 85,,,,,
CCOC(=O)N1CCC(N2CCC3(CC2)CN(C(=O)c2ccc(F)cc2)c2ccc(F)cc23)CC1 [compound 77],xxx (activity was measured to be less than 0.1 μM),65 to 85,xx (activity was measured to be between 0.1 μM and 1.0 μM),< 65,,,,,
CCCCOC(=O)N1C2CCC1CC(N1CCC3(CC1)CN(C(C)=O)c1ccccc13)C2 (stereo not drawn) [compound 604],,,,,< 25,25 to 100,x (activity was measured to be greater than 5.0 μM),xxx (activity was measured to be less than 2.0 μM),
O=C(N[C@H]1CC2(CCN(CC3CCCCC3)CC2)c2ccccc21)N1CCCC1 [compound 946],,,,,< 25,< 25,,,M1 Activity (M1 muscarinic receptor; [6]): x (activity was measured to be greater than 5.0 μM); M4 Activity (M4 muscarinic receptor; [7]): xxx (activity was measured to be less than 2.0 μM)
CCC#CCOC(=O)N1CCC(N2CCC3(CC2)CN(C(C)=O)c2ccccc23)CC1 [compound 656],,,,,25 to 100,25 to 100,xxx (activity was measured to be less than 2.0 μM),xxx (activity was measured to be less than 2.0 μM),
CC(=O)N1CC2(CCN(C3CCN(C(=O)OCC4CC4)CC3)CC2)c2ccccc21 [compound 724],,,,,25 to 100,< 25,xx (activity was measured to be between 2.0 μM and 5.0 μM),x (activity was measured to be greater than 5.0 μM),
CCC1CCC(N2CCC3(CC2)CN(C(C)=O)c2ccc(F)cc23)CC1 (stereo not drawn) [compound 27],xxx (activity was measured to be less than 0.1 μM),65 to 85,xxx (activity was measured to be less than 0.1 μM),65 to 85,,,,,
CCOC(=O)N1C2CCC1CC(N1CCC3(CC1)CN(C(=O)O[C@@H]1CCOC1)c1ccc(F)cc13)C2 (stereo partly drawn) [compound 344],xxx (activity was measured to be less than 0.1 μM),,xx (activity was measured to be between 0.1 μM and 1.0 μM),,,,,,M1 Efficacy (M1 muscarinic receptor; [1]): xx (efficacy was calculated to be between 85% and 65%); M4 Efficacy (M4 muscarinic receptor; [3]): x (efficacy was calculated to be less than 65%)
CCOC(=O)N1CCC(N2CCC3(CC2)CNc2ccc(F)cc23)CC1 [compound 952],,,,,25 to 100,25 to 100,,,M1 Activity (M1 muscarinic receptor; [6]): xxx (activity was measured to be less than 2.0 μM); M4 Activity (M4 muscarinic receptor; [7]): xxx (activity was measured to be less than 2.0 μM)
COc1ccccc1N1CCC(N2CCC3(CC2)CN(C(=O)N(C)C)c2ccc(F)cc23)CC1 [compound 552],,,,,25 to 100,25 to 100,x (activity was measured to be greater than 5.0 μM),x (activity was measured to be greater than 5.0 μM),
COC(=O)N1C2CCC1CC(N1CCC3(CC1)CN(C(C)=O)c1ccccc13)C2 (stereo not drawn) [compound 679],,,,,25 to 100,25 to 100,xxx (activity was measured to be less than 2.0 μM),xxx (activity was measured to be less than 2.0 μM),
Fc1ccc2c(c1)C1(CCN(C[C@H]3C[C@H]4C=C[C@H]3C4)CC1)CO2 [compound 376],,,,,,,,,"EC50 (M1 muscarinic receptor; M1-CHO cells, calcium mobilization (FLIPR)): < 100 nM; Emax (M1 muscarinic receptor; M1-CHO cells, calcium mobilization (FLIPR), read-out: M1 Efficacy): 65 to 85%; EC50 (M4 muscarinic receptor; M4-CHO cells, calcium mobilization (FLIPR)): > 1000 nM; Emax (M4 muscarinic receptor; M4-CHO cells, calcium mobilization (FLIPR), read-out: M4 Efficacy): 65 to 85%"
CC(=O)N[C@@H]1CCC2(CCN(CC3CC4C=CC3C4)CC2)c2ccccc21 (stereo partly drawn) [compound 486],,,,,< 25,25 to 100,x (activity was measured to be greater than 5.0 μM),xxx (activity was measured to be less than 2.0 μM),
CN(C)C(=O)N1CC2(CCN(C3CCN(C(=O)c4ccon4)CC3)CC2)c2cc(F)ccc21 [compound 619],,,,,25 to 100,25 to 100,xx (activity was measured to be between 2.0 μM and 5.0 μM),xxx (activity was measured to be less than 2.0 μM),
CCOC(=O)N1CCC(N2CCC3(CC2)CN(C(=O)C2CCC2)c2ccc(F)cc23)CC1 [compound 254],x (activity was measured to be greater than 1.0 μM),65 to 85,x (activity was measured to be greater than 1.0 μM),65 to 85,,,,,
Clc1ccc2c(c1)C1(CCN(C3CCOCC3)CC1)CN2 [compound 37],xxx (activity was measured to be less than 0.1 μM),65 to 85,xx (activity was measured to be between 0.1 μM and 1.0 μM),> 85,,,,,
COCCOC(=O)N1CCC(N2CCC3(CC2)CN(C(C)=O)c2ccc(F)cc23)CC1 [compound 284],xx (activity was measured to be between 0.1 μM and 1.0 μM),< 65,xx (activity was measured to be between 0.1 μM and 1.0 μM),< 65,,,,,
Cc1ccc2c(c1)C1(CCN(C3CC4CCC3C4)CC1)CN2C(=O)c1snnc1C (stereo not drawn) [compound 982],,,,,< 25,< 25,,,M1 Activity (M1 muscarinic receptor; [6]): x (activity was measured to be greater than 5.0 μM); M4 Activity (M4 muscarinic receptor; [7]): x (activity was measured to be greater than 5.0 μM)
O=C1Nc2ccccc2C12CCN(CC1CC3C=CC1C3)CC2 (stereo not drawn) [compound 7],xxx (activity was measured to be less than 0.1 μM),65 to 85,xx (activity was measured to be between 0.1 μM and 1.0 μM),> 85,,,,,
CC(=O)N1CC2(CCN(C3CCN(c4nc5ccccc5s4)CC3)CC2)c2ccccc21 [compound 545],,,,,< 25,< 25,x (activity was measured to be greater than 5.0 μM),x (activity was measured to be greater than 5.0 μM),
CC(C)C1CCC(N2CCC3(CC2)CC(C(=O)O)c2ccccc23)CC1 (stereo not drawn) [compound 919],,,,,< 25,< 25,,,M1 Activity (M1 muscarinic receptor; [6]): x (activity was measured to be greater than 5.0 μM); M4 Activity (M4 muscarinic receptor; [7]): x (activity was measured to be greater than 5.0 μM)
CC(=O)CN1CC2(CCN(C[C@H]3C[C@H]4C=CC3C4)CC2)c2cc(F)ccc21 [compound 877],,,,,25 to 100,25 to 100,,,M1 Activity (M1 muscarinic receptor; [6]): xxx (activity was measured to be less than 2.0 μM); M4 Activity (M4 muscarinic receptor; [7]): xxx (activity was measured to be less than 2.0 μM)
COCCN1CCC(N2CCC3(CC2)CN(C(C)=O)c2ccc(F)cc23)CC1 [compound 474],,,,,< 25,< 25,x (activity was measured to be greater than 5.0 μM),x (activity was measured to be greater than 5.0 μM),
CC(=O)N1CC2(CCN(C3CCN(C(=O)OC4CCC4)CC3)CC2)c2cc(F)ccc21 [compound 140],xxx (activity was measured to be less than 0.1 μM),> 85,xxx (activity was measured to be less than 0.1 μM),> 85,,,,,
